Patent US7750012B2, “Biaryl nitrogen-heterocycle inhibitors of LTA4H for treating inflammation” (deCODE genetics ehf, priority 2005, dated 2010)
Where a name gives a salt, the structure may show the parent alone.

What was measured:
[1] = molecular target: T1, purified recombinant human LTA4 hydrolase (hLTA4H) (Homo sapiens, UniProt P09960); experiment: In vitro assay testing inhibitory activity against purified recombinant human LTA4 hydrolase; type: biochemical; conditions: 200 nM recombinant enzyme, 2 μM LTA4, LTB4 measured by LC-MS/MS
T1 construct: A human LTA4 hydrolase full-length cDNA clone (NM_000895) was purchased from OriGene Technologies; own knowledge: pDEST17 adds an N-terminal 6xHis; made in house; host or cells: Escherichia coli BL21-AI
T1 sequence (P09960 1-611): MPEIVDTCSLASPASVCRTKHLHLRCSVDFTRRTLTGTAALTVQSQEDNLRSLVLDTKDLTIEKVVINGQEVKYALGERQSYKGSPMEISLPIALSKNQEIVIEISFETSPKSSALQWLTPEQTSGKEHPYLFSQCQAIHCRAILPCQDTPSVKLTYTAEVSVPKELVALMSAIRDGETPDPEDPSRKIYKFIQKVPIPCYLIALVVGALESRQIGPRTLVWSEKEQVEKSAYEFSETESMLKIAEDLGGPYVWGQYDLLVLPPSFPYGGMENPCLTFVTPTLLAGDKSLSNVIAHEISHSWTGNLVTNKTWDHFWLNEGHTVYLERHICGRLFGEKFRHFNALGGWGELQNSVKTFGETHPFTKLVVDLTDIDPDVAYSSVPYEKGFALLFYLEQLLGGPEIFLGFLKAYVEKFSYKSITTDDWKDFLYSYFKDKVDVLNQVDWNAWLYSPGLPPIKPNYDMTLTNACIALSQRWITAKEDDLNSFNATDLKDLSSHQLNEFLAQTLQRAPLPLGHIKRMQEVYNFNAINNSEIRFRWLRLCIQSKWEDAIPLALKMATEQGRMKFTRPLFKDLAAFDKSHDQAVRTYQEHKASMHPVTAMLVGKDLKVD
Text: (1) In Vitro Assay Testing Inhibitory Activity Against Purified Recombinant Human LTA4 Hydroase:
The gene was amplified by polmerase chain reaction and transferred via pDONR201 into the bacterial expression vector pDEST17 by recombination (both plasmids from Invitrogen, Carlsbad, Calif.). The resulting construct was transformed into Escherichia coli BL21-AI (Invitrogen), and expression was induced by chemical induction with arabinose. The recombinant enzyme was purified by chromatography on a FPLC system (Amersham Biosciences, Uppsala, Sweden) using immobilized metal affinity chromatography (Ni-NTA Superflow, Qiagen, Hilden, Germany) and anion exchange chromatography (MonoQ HR 10/10, Amersham Biosciences).
The compounds of the invention were incubated in a series of dilutions with 200 nM of recombinant enzyme in assay buffer (100 mM Tris-HCl, 100 mM NaCl, 5 mg/ml fatty-acid free BSA, 10% DMSO, pH 8.0) for 10 min at room temperature to allow binding between LTA4 hydrolase and the inhibitors. LTA4 was prepared by alkaline hydrolysis of LTA4 methyl ester (Biomol, Plymouth Meeting, Pa., or Cayman Chemicals, Ann Arbor, Mich.). A solution of 10 μg of the ester was dried under a nitrogen stream and redissolved in 60 μl of a solution of 80% aceton and 20% 0.25 M NaOH.
After incubation for 40 min at room temperature the resulting approximately 500 μM tock of LTA4 was kept at −80° C. for no more than a few days prior to use.
Immediately before the assay, LTA4 was diluted to a concentration of 10 μM in assay buffer (without DMSO) and added to the reaction mixture to a final concentration of 2 μM to initiate the enzyme reaction. […] The samples were then kept at 4° C. over night to complete protein precipitation and centrifuged for 15 min at 1800 g. LTB4 formed was measured by LC-MS/MS using LTB4-d4 as an internal standard and an external LTB4 standard (Biomol) as reference.

[2] = system: ionophore-induced LTB4 production; conditions: oral administration; cited from earlier work
[3] = system: ionophore-induced LTB4 production; conditions: oral administration; cited from earlier work; remark: listed apart in the source
[4] = system: colitis symptoms; conditions: eight weeks of treatment, spontaneous colitis; cited from earlier work

Row | SMILES | IC50 [1] [µM] | further results
1 | O=C(O)CCCN1CCN(c2ccc(Nc3ccccc3)cc2)CC1 [Example 3, 4-[4-(4-phenylamino-phenyl)-piperazin-1-yl]-butyric acid sodium salt] | 5 to 20 | 
2 | c1ccc(Cc2ccc(N3CCNCC3)cc2)cc1 [Example 4, 1-(4-Benzyl-phenyl)-piperazine hydrochloride] | < 5 | 
3 | COC(=O)CCCN1CCN(c2ccc(Cc3ccccc3)cc2)CC1 [Example 5, 4-[4-(4-Benzyl-phenyl)-piperazin-1-yl]-butyric acid methyl ester] | < 5 | 
4 | O=C(O)CCCN1CCN(c2ccc(Cc3ccccc3)cc2)CC1 [Example 6, 4-[4-(4-Benzyl-phenyl)-piperazin-1-yl]-butyric acid sodium salt] | < 5 | 
5 | O=C(O)CCN1CCN(c2ccc(Cc3ccccc3)cc2)CC1 [Example 7, 3-[4-(4-Benzyl-phenyl)-piperazin-1-yl]-propionic acid sodium salt] | < 5 | 
6 | NC1CCN(c2ccc(Oc3ccccc3)cc2)CC1 [Example 12, 1-(4-Phenoxy-phenyl)-piperidin-4-ylamine hydrochloride] | 5 to 20 | 
7 | Ic1ccc(Oc2ccc(N3CCNCC3)cc2)cc1 [Example 14, 1-[4-(4-Iodo-phenoxy)-phenyl]-piperazine hydrochloride] | < 5 | 
8 | O=C(O)CCCN1CCN(c2ccc(Oc3ccc(I)cc3)cc2)CC1 [Example 15, 4-{4-[4-(4-Iodo-phenoxy)-phenyl]-piperazin-1-yl]-butyric acid sodium salt] | < 5 | 
9 | O=C(O)CCN1CCN(c2ccc(Oc3ccc(-c4ccsc4)cc3)cc2)CC1 [Example 16, 3-{4[4-(4-Thiophen-3-yl-phenoxy)-phenyl]-piperazin-1-yl}-propionic acid sodium salt] | < 5 | 
10 | COc1ccc(Oc2ccc(N3CCNCC3)cc2)cc1 [Example 17, 1-[4-(4-Methoxy-phenoxy)-phenyl]-piperazine] | 5 to 20 | 
11 | Cc1ccc(Oc2ccc(N3CCNCC3)cc2)cc1 [Example 18, 1-(4-p-Tolyloxy-phenyl]-piperazine] | < 5 | 
12 | FC(F)(F)c1ccc(Oc2ccc(N3CCNCC3)cc2)cc1 [Example 20, 1-[4-(4-Trifluoromethyl-phenoxy)-phenyl]-piperazine] | < 5 | 
13 | CC(=O)N1CCN(c2ccc(Oc3ccccc3)cc2)CC1 [Example 21, 1-[4-(4-Phenoxy-phenyl)-piperazin-1-yl]-ethanone] | < 5 | 
14 | c1cc(-c2ccc(Oc3ccc(N4CCNCC4)cc3)cc2)cs1 [Example 23, 1-[4-(4-Thiophen-3yl-phenoxy)-phenyl]-piperazine hydrochloride] | < 5 | 
15 | Ic1ccc(Oc2ccc(N3CCOCC3)cc2)cc1 [Example 24, 4-[4-(4-Iodo-phenoxy)-phenyl]-morpholine] | < 5 | 
16 | c1cc(-c2ccc(Oc3ccc(N4CCOCC4)cc3)cc2)cs1 [Example 25, 4-[4-(4-Thiophen-3-yl-phenoxy)-phenyl]-morpholine] | < 5 | 
17 | Clc1ccc(-c2ccc(Oc3ccc(N4CCNCC4)cc3)cc2)s1 [Example 26, hydrochloride] | 5 to 20 | 
18 | CN(CCCOc1ccc(Cc2ccccc2)cc1)CCC(=O)O.Cl [SC57461] |  | inhibition of ionophore-induced LTB4 production in mouse blood ex vivo [2]: inhibition of ionophore-induced LTB4 production; inhibition of ionophore-induced LTB4 production in rat peritoneum in vivo [3]: inhibition of ionophore-induced LTB4 production; colitis symptoms in a primate model [4]: significantly improved colitis symptoms
